Laboratory results: PubChem BioAssay (NCI)
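Cultured in 96-well plates, cells were exposed to test compound for 48 hours across five concentrations. TGI is the concentration that stops growth completely.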

Key:
Assay in all cases: growth of human tumour cells (NCI), 48 h
[1] = system: SR leukemia
[2] = system: SK-MEL-5 melanoma
[3] = system: NCI/ADR-RES ovarian
[4] = system: SK-MEL-28 melanoma
[5] = system: OVCAR-8 ovarian
[6] = system: MDA-MB-231 breast
[7] = system: SNB-19 CNS
[8] = system: CAKI-1 renal
[9] = system: TK-10 renal
[10] = system: MDA-MB-435

Row | SMILES | TGI [1] | TGI [2] | TGI [3] | TGI [4] | TGI [5] | TGI [6] | TGI [7] | TGI [8] | TGI [9] | TGI [10]
1 | COc1cc2c(cc1O)NC(=O)[C@@H]1C[C@@H](O)CN1C2=O | > 100 µM | > 100 µM | > 100 µM | > 100 µM | > 100 µM | > 100 µM | > 100 µM | > 100 µM | > 100 µM | > 100 µM
2 | O=C(O)CCCc1ccc2c(c1)C(C(=O)O)CC2 (stereo unspecified) | > 100 µM | > 100 µM | > 100 µM | > 100 µM | > 100 µM | > 100 µM | > 100 µM | > 100 µM | > 100 µM | 
3 | CN(C)c1cccc2c(S(=O)(=O)NCCN)cccc12 | > 100 µM | > 100 µM | > 100 µM | > 100 µM |  | > 100 µM | > 100 µM | > 100 µM |  | > 100 µM
4 | CCOC(=O)C(Cc1ccc(N=NN(C)C)cc1)NC(=O)CC1c2ccccc2-c2ccccc21 (stereo unspecified) | > 100 µM | > 100 µM |  | > 100 µM | > 100 µM |  | > 100 µM | > 100 µM | > 100 µM | 
5 | C/C(=N/NC(=S)Nc1ccc(C)cc1)c1ccccn1 |  | 2.29 µM | 1.34 µM | 24.3 µM | 7.51 µM | 18.7 µM | 20.6 µM | 13.9 µM | 6.77 µM | 15 µM
6 | COc1ccc(C(=CCC(C)C2CCC3[C@@H]4C(OC(C)=O)CC5CC(OC(C)=O)CC[C@]5(C)C4CC(OC(C)=O)[C@]23C)c2ccc(OC)cc2)cc1 (stereo partly specified) | 77.5 µM | > 100 µM | > 100 µM | > 100 µM | > 100 µM | > 100 µM | > 100 µM |  | > 100 µM | > 100 µM
7 | CC1=NC(=N)N=C(C)C1N=Nc1ccc2nc(C)[nH]c2c1 (stereo unspecified) |  |  | > 100 µM | > 100 µM | > 100 µM | > 100 µM | > 100 µM | > 100 µM | > 100 µM | > 100 µM
8 | Cc1ccc(S(=O)(=O)NC(=O)Nc2ccc(C(=O)O)cc2)cc1 |  | > 100 µM | > 100 µM | > 100 µM | > 100 µM | > 100 µM | > 100 µM |  | > 100 µM | 
9 | CC(=O)c1c(-c2ccc(Cl)cc2)c(C#N)c(=S)n(C2OC(CO)C(O)C(O)C2O)c1C (stereo unspecified) | 87.6 µM | > 100 µM | > 100 µM | 87.6 µM | > 100 µM | > 100 µM | 84.9 µM |  | > 100 µM | > 100 µM
10 | CC(=O)O[C@H]1CC[C@@H](OC(C)=O)[C@H]2[C@H](O)[C@H](O)[C@@H]1n1c(=O)n(-c3ccccc3)c(=O)n12 |  | > 100 µM | > 100 µM | > 100 µM | > 100 µM | > 100 µM | > 100 µM | > 100 µM | > 100 µM | > 100 µM
11 | O=[N+]([O-])/C=C/c1cc(Cl)c(/C=C/[N+](=O)[O-])cc1Cl |  | 14.9 µM | > 25 µM |  |  |  | 6.91 µM |  | 2.9 µM | 4.17 µM
12 | O=C(O)C1CCC(=O)N1C(=O)COc1cc(Cl)c(Cl)cc1Cl (stereo unspecified) |  | > 100 µM |  | > 100 µM | > 100 µM |  | > 100 µM | > 100 µM | > 100 µM | 
13 | Cc1cc(-c2ccc(N=Nc3ccc4c(S(=O)(=O)O)cc(S(=O)(=O)O)c(N)c4c3O)c(C)c2)ccc1N=Nc1ccc2c(S(=O)(=O)O)cc(S(=O)(=O)O)c(N)c2c1O |  | > 100 µM | > 100 µM | > 100 µM | > 100 µM |  | > 100 µM |  |  | 
